Assay results taken from patent publication US20040034222A1, “2,4 diamino-1,3,5-triazines, processes for their preparation and their use as herbicides and plant growth regulators” (priority 1999, published 2004).

Tests used:
Format in all cases: in vivo
[1] = test system: harmful plants which are typical for rice crops, for example Cyperus iria and Echinochloa crus-galli; assay: Action on harmful plants in rice (paddy rice conditions); details: applied into the dammed water, different dosages, scored about three weeks after application
Excerpt: Transplanted and sown rice and also typical rice weeds (gramineous and broad-leaved) are cultivated in closed plastic pots in a greenhouse to the three-leaf stage (Echinochloa crus-galli 1.5-leaf) under paddy rice conditions (dammed height of water: 2-3 cm). This is followed by treatment with the novel compounds. For this purpose, the formulated active compounds are suspended, dissolved or emulsified in water and applied by pouring them into the dammed water around the test plants in different dosages. After this treatment, the test plants are set up in a greenhouse under optimum growth conditions and are maintained in this way throughout the test period.
About three weeks after application, evaluation is made by visual scoring of the damage to the plants by comparison with untreated controls.

[2] = test system: Stellaria media, Lolium multiflorum, Amaranthus retroflexus, Sinapis arvensis, Avena fatua und Setaria viridis; assay: Post-emergence effect on weeds (greenhouse pot test); details: application rate of 1 kg and less of active substance per hectare; treated at three-leaf stage; scored after about 3 to 4 weeks by comparison with untreated controls
Experimental: Seeds or rhizome pieces of monocotyledonous and dicotyledonous weeds were placed in sandy loam soil in plastic pots, covered with soil and grown in a greenhouse under good growth conditions. Three weeks after sowing, the test plants were treated at the three-leaf stage. The compounds according to the invention which were formulated as wettable powders or emulsion concentrates were sprayed, at various dosages, onto the, green parts of the plants at an application rate of 600 to 800 l of water/ha (converted). After the test plants had remained in the greenhouse for about 3 to 4 weeks under optimum growth conditions, the effect of the preparations was scored visually by comparison with untreated controls. The agents according to the invention also have good herbicidal activity post-emergence against a broad spectrum of economically important weed grasses and broad-leafed weeds.

[3] = test system: Stellaria media, Lolium multiflorum, Amaranthus retroflexus, Sinapis arvensis, Avena fatua and Setaria viridis; assay: Pre-emergence effect on weeds (greenhouse pot test); details: application rate of 1 kg and less of active substance per hectare; scored after 3 to 4 weeks by comparison with untreated controls
Excerpt: Seeds or rhizome pieces of monocotyledonous and dicotyledonous weed plants are placed in sandy loam soil in plastic pots and covered with soil. The compounds according to the invention which are formulated in the form of wettable powders or emulsion concentrates were then applied to the surface of the soil cover in the form of aqueous suspensions or emulsions at an application rate of 600 to 800 l of water/ha (converted), in various dosages.
After the treatment, the pots are placed in a greenhouse and kept under good growth conditions for the weeds. After the test plants had emerged, the damage to the plants or the negative effect on the emergence was scored visually after a test period of 3 to 4 weeks by comparison with untreated controls. As shown by the test results, compounds according to the invention have good herbicidal pre-emergence activity against a broad spectrum of weed grasses and broad-leafed weeds.

CC(C)(F)c1nc(N)nc(NC(COc2ccccc2)C2CCC2)n1 (racemic) [Example 178, 2-Amino4-(1-fluoro-1-methylethyl)-6-[N-(1-cyclobutyl-2-phenoxyethyl)-amino]-1,3,5-triazine]
very good herbicidal activity: herbicidal activity against harmful plants typical for rice crops (visual scoring of damage) [1] | herbicidal activity post-emergence (scored visually) [2] | herbicidal activity pre-emergence (damage to the plants or negative effect on emergence, scored visually) [3]

Cc1cccc(OCC(Nc2nc(N)nc(C(F)(F)C(F)F)n2)C2CCCC2)c1 (racemic) [Example 110, 2-Amino-4-(1,1,2,2-tetrafluoroethyl)6-{N-[1-cyclopentyl-2-(3-methylphenoxy)ethyl]amino}-1,3,5-triazine]
very good herbicidal activity: herbicidal activity against harmful plants typical for rice crops (visual scoring of damage) [1] | herbicidal activity post-emergence (scored visually) [2] | herbicidal activity pre-emergence (damage to the plants or negative effect on emergence, scored visually) [3]
